Results from patent US4605674A, “Substituted acetophenones and compositions containing them” (Hoffmann-La Roche Inc., priority 1979, dated 1986).
Converted amounts (≈) assume the structure as drawn. Like-named read-outs stand apart in the source and are kept apart here.

How the values were obtained:
in vivo = conditions: mouse, DDY mice, single dose
Experimental: ^(1) DDY mice weighing 15-20 g were treated with a single dose of the
compound. Survivors were recorded on day 21.
^(2) Compounds were dissolved in dimethylsulfoxide.
^(3) Compounds were suspended with solution of 0.5% carboxymethyl

rhinovirus HGP = assay: Inhibition of viral cytopathogenic effect (c.p.e.) of rhinovirus HGP in HeLa cells; format: cell-based, human rhinoviruses; conditions: Enterovirus, HeLa, 48 h, read-out: IC50 against rhinovirus HGP (concentration inhibiting the viral c.p.e. by 50%)
Experimental: A suspension of HeLa cells (6×10^4) was mixed with rhinovirus HGP (3×10^3 plaque forming units, PFU) and was plated in a microtest plate containing the compounds to be tested serially diluted. The cells were then cultured with Eagle's minimum essential medium containing 2% calf serum, 1% tryptose phosphate broth, 100 μg/ml of streptomycin sulfate and 20 unit/ml of penicillin G. Viral c.p.e. (cytopathogenic effect) was observed by a microscope after 2 days culture at 33° C.
The antiviral activity of the tested compounds is expressed by the concentration inhibiting the viral c.p.e. by 50% when compared to the control culture (IC50).

Coxsackievirus B1 = assay: In vivo antiviral activity against lethal infection with Coxsackievirus B1 in mice; design: species or system DDY mice; conditions: up to 21 days
Experimental: The activity of the compounds against lethal infection with Coxsackievirus B1 was tested in mice. DDY mice weighing about 15 g were infected intraperitoneally with about the tenfold LD50 dose of the virus. The infected mice were treated 9 times with the compounds either orally 0, 2, 5, 18, 24, 42, 48, 66 and 72 hours or intraperitoneally 1, 2, 4, 18 and 28 hours after infection. The survivals were recorded up to 21 days.
Non-treated (controls) mice died at 3 to 5 days after infection.

HeLa cells = assay: Cytotoxic symptoms in HeLa cells in the viral replication test; format: cell-based
Experimental: Effect of 2'-hydroxy-4,4',6'-trimethoxychalcone on the replication of rhinovirus HGP in HeLa cells was tested. Monolayers of HeLa cells (4×10^5) to which 2'-hydroxy-4,4',6'-trimethoxychelcone at various concentrations had been added were infected with rhinovirus HGP (4×10^4 PFU) for 60 minutes. Thereafter, the cells were washed with Eagle's minimum essential medium and further cultured with said medium containing 2% calf serum, 1% tryptose phosphate broth, 100 μg/ml of streptomycin sulfate and 20 units/ml of penicillin G. The total yield of the virus replicated in the culture medium was assayed 2 days after infection.
In the same manner the effect of 4'-ethoxy-2'-hydroxy-4,6'-dimethoxychalcone on the replication of rhinovirus type 21 in HeLa cells was tested.

[1] = ip, i.p., dissolved in dimethylsulfoxide, day 21, read-out: LD50 i.p.
[2] = po, p.o., suspended in 0.5% carboxymethyl cellulose, day 21, read-out: LD50 p.o.
[3] = 20 mg/kg × 9, p.o., control 20%
[4] = 40 mg/kg × 9, p.o., control 20%

| Structure (SMILES) | LD50 at 504 h (in vivo; [1]) [mg/kg] | LD50 at 504 h (in vivo; [2]) [mg/kg] | IC50 (rhinovirus HGP) [µg/mL] | Survival (Coxsackievirus B1; 20 mg/kg × 5, i.p., control 0%) [%] | Survival (Coxsackievirus B1; 40 mg/kg × 5, i.p., control 0%) [%] | Survival (Coxsackievirus B1; [3]) [%] | Survival (Coxsackievirus B1; [4]) [%] | cytotoxic symptom (HeLa cells; 0.1-1.0 μg/ml, rhinovirus HGP test) | cytotoxic symptom (HeLa cells; 0.03 μg/ml, rhinovirus type 21 test) |
| --- | --- | --- | --- | --- | --- | --- | --- | --- | --- |
| CCC(=O)Oc1cc(OC)cc(OC)c1C(=O)/C=C/c1ccc(OC)cc1 [2',4,4'-trimethoxy-6'-(propionyloxy)chalcone] | > 500 | > 5000 | 0.01 (≈ 0.027 µM) | 25 | 75 | – | – | – | – |
| COc1ccc(/C=C/C(=O)c2c(OC)cc(OC)cc2OC(C)=O)cc1 [2'-acetoxy-4,4',6'-trimethoxychalcone] | > 1000 | > 5000 | 0.006 (≈ 0.0168 µM) | – | 50 | 40 | 70 | – | – |
| COc1cc(O)c(C(=O)C=Cc2cccs2)c(OC)c1 [2'-hydroxy-4',6'-dimethoxy-3-(2-thienyl)-acrylophenone] | > 1000 | > 5000 | 0.03 (≈ 0.103 µM) | – | – | 30 | 70 | – | – |
| COc1ccc(/C=C/C(=O)c2c(O)cc(OC)cc2OC)cc1 [2'-hydroxy-4,4',6'-trimethoxychalcone] | > 1000 | > 5000 | 0.01 (≈ 0.0318 µM) | – | – | 40 | 60 | without showing any cytotoxic symptom | – |
| CCOc1cc(O)c(C(=O)/C=C/c2ccc(OC)cc2)c(OC)c1 [4'-ethoxy-2'-hydroxy-4,6'-dimethoxychalcone] | > 1000 | > 5000 | 0.002 to 0.006 (≈ 0.00609 to 0.0183 µM) | – | – | – | – | – | without showing any cytotoxic symptom |
| COc1ccc(/C=C/C(=O)c2c(OC)cc(OC)cc2OC(=O)C(C)(C)C)cc1 [2',4,4'-trimethoxy-6'-(pivaloyloxy)-chalcone] | > 1000 | > 5000 | 0.01 to 0.03 (≈ 0.0251 to 0.0753 µM) | – | – | – | – | – | – |
| COc1cc(O)c(C(=O)/C=C/c2ccc(Cl)cc2)c(OC)c1 [4-chloro-2'-hydroxy-4',6'-dimethoxychalcone] | > 1000 | > 5000 | 0.02 to 0.06 (≈ 0.0627 to 0.188 µM) | – | – | – | – | – | – |
| CCC(=O)Oc1cc(OC)cc(OC)c1C(=O)/C=C/c1ccccc1 [2',4'-dimethoxy-6'-(propionyloxy)-chalcone] | > 1000 | > 5000 | 0.3 to 1 (≈ 0.881 to 2.94 µM) | – | – | – | – | – | – |
| CCCOc1cc(OC)cc(O)c1C(=O)/C=C/c1ccc(OC)cc1 [2'-hydroxy-4,4'-dimethoxy-6'-propoxychalcone] | > 500 | > 1500 | 0.06 (≈ 0.175 µM) | – | – | – | – | – | – |
| COc1ccc(/C=C/C(=O)c2ccc(OC)cc2O)cc1 [2'-hydroxy-4,4'-dimethoxychalcone] | > 1000 | > 2500 | 0.3 to 1 (≈ 1.06 to 3.52 µM) | – | – | – | – | – | – |
| COc1cc(O)c(C(=O)/C=C/c2cccc(OC)c2O)c(OC)c1 [2,2'-dihydroxy-3,4',6'-trimethoxychalcone] | > 500 | > 1000 | 0.15 to 0.5 (≈ 0.454 to 1.51 µM) | – | – | – | – | – | – |
| CCOc1ccc(/C=C/C(=O)c2c(OC)cc(OC)cc2OC(=O)CC)cc1 [4-ethoxy-2',4'-dimethoxy-6'-(propionyloxy)-chalcone] | > 1000 | > 5000 | 0.03 to 0.1 (≈ 0.078 to 0.26 µM) | – | – | – | – | – | – |
| COc1ccc(/C=C/C(=O)c2c(OC)cc(OC)cc2OC(=O)CCCC(=O)O)cc1 [2'-(4-carboxybutanoyloxy)-4,4',6'-trimethoxychalcone] | > 500 | > 2000 | 0.03 (≈ 0.07 µM) | – | – | – | – | – | – |
| COc1cc(O)c(C(=O)C=Cc2sccc2C)c(OC)c1 [2'-hydroxy-4',6'-dimethoxy-3-(3-methyl-2-thienyl)-acrylophenone] | > 500 | > 1500 | 0.1 (≈ 0.329 µM) | – | – | – | – | – | – |
| CCC(=O)Oc1cc(OC)cc(OC)c1C(=O)C=Cc1ccc2c(c1)OCO2 [2',4'-dimethoxy-3,4-(methylenedioxy)-6'-(propionyloxy)-chalcone] | > 500 | > 1000 | 0.1 (≈ 0.26 µM) | – | – | – | – | – | – |
| CCC(=O)Oc1cc(OC)cc(OC)c1C(=O)C=Cc1cccn1C [2',4'-dimethoxy-3-(1-methylpyrrol-2-yl)-6'-(propionyloxy)-acrylophenone] | > 500 | > 5000 | 0.3 (≈ 0.874 µM) | – | – | – | – | – | – |
| COc1ccc(/C=C/C(=O)c2c(OC)cc(OC)cc2OC(=O)c2cnccn2)cc1 [2',4,4'-trimethoxy-6'-(pyrazinylcarbonyloxy)-chalcone] | > 500 | > 4000 | 0.03 to 0.1 (≈ 0.0714 to 0.238 µM) | – | – | – | – | – | – |
| CCC(=O)Oc1cc(OC)cc(OC)c1C(=O)C=Cc1cccs1 [2',4'-dimethoxy-6'-(propionyloxy)-3-(2-thienyl)-acrylophenone] | > 1000 | > 5000 | 0.1 to 0.3 (≈ 0.289 to 0.866 µM) | – | – | – | – | – | – |
| C=CCOc1ccc(/C=C/C(=O)c2c(O)cc(OC)cc2OC)cc1 [4-(allyloxy)-2'-hydroxy-4',6'-dimethoxychalcone] | > 500 | > 1000 | 0.03 to 0.1 (≈ 0.0881 to 0.294 µM) | – | – | – | – | – | – |
| CCC(=O)Oc1cc(OC)cc(OC)c1C(=O)/C=C/c1ccc(Cl)cc1 [4-chloro-2',4'-dimethoxy-6'-(propionyloxy)-chalcone] | > 1000 | > 5000 | 0.1 to 0.3 (≈ 0.267 to 0.8 µM) | – | – | – | – | – | – |
| COc1cc(O)c(C(=O)/C=C/c2ccc(OC)c(O)c2)c(OC)c1 [2',3-dihydroxy-4,4',6'-trimethoxychalcone] | > 500 | > 1000 | 0.1 to 0.3 (≈ 0.303 to 0.908 µM) | – | – | – | – | – | – |
| COc1cc(O)c(C(=O)/C=C/c2ccc(C#N)cc2)c(OC)c1 [4-cyano-2'-hydroxy-4',6'-dimethoxychalcone] | > 500 | > 1000 | 0.3 (≈ 0.97 µM) | – | – | – | – | – | – |
| CCC(=O)Oc1cc(OC)cc(OC)c1C(=O)C=Cc1ccco1 [3-(2-furyl)-2',4'-dimethoxy-6'-(propionyloxy)-acrylophenone] | > 500 | > 1000 | 0.1 to 0.3 (≈ 0.303 to 0.908 µM) | – | – | – | – | – | – |
